Measured values from PubChem BioAssay AID248 (DTP/NCI, 2004).
“And” between values parts separate entries of the source, which are not always exact repeats. Equal entries are not always repeated. Inconclusive results and toxic doses are left out. No stated cut-off is given here; in the data, active means T/C of 150% or more; inactive means T/C below 125%.

Tested on: L1210 leukemia ip in BDF1 mice, survival T/C
Assay: NCI In Vivo Anticancer Drug Screen. Data for tumor model L1210 Leukemia (intraperitoneal) in B6D2F1 (BDF1) mice
Conditions: endpoint: mean survival time, higher = longer survival
In short: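 Survival endpoint. Drug-treated group vs vehicle group, expressed as T divided by C. Tumor passaged by transplantation.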

[1] = dose: 50.0 mg/kg/injection, schedule: Q01DX001 (ip), vehicle: saline
[2] = dose: 100.0 mg/kg/injection, schedule: Q01DX001 (ip), vehicle: saline
[3] = dose: 200.0 mg/kg/injection, schedule: Q01DX001 (ip), vehicle: saline
[4] = dose: 400.0 mg/kg/injection, schedule: Q01DX001 (ip), vehicle: saline
[5] = dose: 100.0 mg/kg/injection, schedule: Q04DX003 (ip), vehicle: saline
[6] = dose: 200.0 mg/kg/injection, schedule: Q04DX003 (ip), vehicle: saline
[7] = dose: 50.0 mg/kg/injection, schedule: Q01DX009 (ip), vehicle: saline
[8] = dose: 50.0 mg/kg/injection, schedule: Q04DX003 (ip), vehicle: saline
[9] = dose: 100.0 mg/kg/injection, schedule: Q04DX002 (ip), vehicle: Klucel (hydroxypropylcellulose) (HPC)
[10] = dose: 200.0 mg/kg/injection, schedule: Q04DX002 (ip), vehicle: Klucel (hydroxypropylcellulose) (HPC)
[11] = dose: 400.0 mg/kg/injection, schedule: Q04DX002 (ip), vehicle: Klucel (hydroxypropylcellulose) (HPC)
[12] = dose: 100.0 mg/kg/injection, schedule: Q04DX003 (ip), vehicle: Klucel (hydroxypropylcellulose) (HPC)
[13] = dose: 200.0 mg/kg/injection, schedule: Q04DX003 (ip), vehicle: Klucel (hydroxypropylcellulose) (HPC)
[14] = dose: 100.0 mg/kg/injection, schedule: Q04DX002 (ip), vehicle: saline with Tween-80
[15] = dose: 200.0 mg/kg/injection, schedule: Q04DX002 (ip), vehicle: saline with Tween-80
[16] = dose: 100.0 mg/kg/injection, schedule: Q01DX001 (ip), vehicle: carboxymethylcellulose (CMC)
[17] = dose: 100.0 mg/kg/injection, schedule: Q04DX002 (ip), vehicle: saline
[18] = dose: 200.0 mg/kg/injection, schedule: Q01DX001 (ip), vehicle: carboxymethylcellulose (CMC)
[19] = dose: 200.0 mg/kg/injection, schedule: Q04DX002 (ip), vehicle: saline
[20] = dose: 400.0 mg/kg/injection, schedule: Q01DX001 (ip), vehicle: carboxymethylcellulose (CMC)
[21] = dose: 100.0 mg/kg/injection, schedule: Q01DX009 (ip), vehicle: Klucel (hydroxypropylcellulose) (HPC)
[22] = dose: 200.0 mg/kg/injection, schedule: Q01DX009 (ip), vehicle: Klucel (hydroxypropylcellulose) (HPC)
[23] = dose: 400.0 mg/kg/injection, schedule: Q01DX009 (ip), vehicle: Klucel (hydroxypropylcellulose) (HPC)
[24] = dose: 400.0 mg/kg/injection, schedule: Q04DX003 (ip), vehicle: Klucel (hydroxypropylcellulose) (HPC)
[25] = dose: 100.0 mg/kg/injection, schedule: Q04DX003 (ip), vehicle: saline with Tween-80
[26] = dose: 200.0 mg/kg/injection, schedule: Q04DX003 (ip), vehicle: saline with Tween-80
[27] = dose: 400.0 mg/kg/injection, schedule: Q04DX003 (ip), vehicle: saline with Tween-80
[28] = dose: 100.0 mg/kg/injection, schedule: Q01DX009 (ip), vehicle: saline with Tween-80
[29] = dose: 200.0 mg/kg/injection, schedule: Q01DX009 (ip), vehicle: saline with Tween-80
[30] = dose: 400.0 mg/kg/injection, schedule: Q01DX009 (ip), vehicle: saline with Tween-80

Measured: T/C

Cc1n[nH]c(=S)[nH]c1=O
inactive: [1] 100 % of control | [2] 100 % of control | [3] 100 % of control | [4] 94 % of control

OCC1CCCN2CCCCC12 (centres undefined)
inactive: [5] 98 % of control | [6] 90 % of control

CN(C)CCCN1c2ccccc2CCc2ccc(Cl)cc21
inactive: dose: 3.12 mg/kg/injection, schedule: Q01DX009 (ip), vehicle: saline 97 % of control | dose: 6.25 mg/kg/injection, schedule: Q01DX009 (ip), vehicle: saline 108 % of control | dose: 12.5 mg/kg/injection, schedule: Q01DX009 (ip), vehicle: saline 94 % of control | dose: 25.0 mg/kg/injection, schedule: Q01DX009 (ip), vehicle: saline 94 % of control | dose: 25.0 mg/kg/injection, schedule: Q04DX003 (ip), vehicle: saline 96 % of control | [7] 101 % of control | [8] 96 % of control

CCOC(=O)Nc1cc(NC(c2ccc(Cl)cc2)c2ccc(Cl)cc2)c2[nH]cnc2n1
inactive: dose: 25.0 mg/kg/injection, schedule: Q01DX009 (ip), vehicle: other 96 % of control | dose: 50.0 mg/kg/injection, schedule: Q01DX009 (ip), vehicle: other 111 % of control

CC(C)OC(=O)Nc1ccc(C(F)(F)F)cc1
inactive: [9] 97 % of control and 100 % of control | [10] 88 % of control | [11] 103 % of control and 112 % of control

Cc1ccc(C(C)C)cc1NC(=O)NCCCl
inactive: dose: 20.0 mg/kg/injection, schedule: Q04DX003 (ip), vehicle: Klucel (hydroxypropylcellulose) (HPC) 94 % of control | dose: 40.0 mg/kg/injection, schedule: Q04DX003 (ip), vehicle: Klucel (hydroxypropylcellulose) (HPC) 97 % of control | dose: 80.0 mg/kg/injection, schedule: Q04DX003 (ip), vehicle: Klucel (hydroxypropylcellulose) (HPC) 102 % of control | [12] 112 % of control | [13] 112 % of control

O=C(O)/C=C\C(Cl)(Cl)Cl
inactive: [14] 97 % of control | [15] 93 % of control

N=Nc1ccc2c(O)c3ccccc3c(O)c2c1
inactive: [16] 107 % of control | dose: 100.0 mg/kg/injection, schedule: Q01DX009 (ip), vehicle: carboxymethylcellulose (CMC) 100 % of control and 103 % of control | [17] 103 % of control | dose: 100.0 mg/kg/injection, schedule: Q04DX003 (ip), vehicle: carboxymethylcellulose (CMC) 101 % of control | [18] 104 % of control | dose: 200.0 mg/kg/injection, schedule: Q01DX009 (ip), vehicle: carboxymethylcellulose (CMC) 98 % of control and 100 % of control | [19] 105 % of control and 106 % of control | dose: 200.0 mg/kg/injection, schedule: Q04DX003 (ip), vehicle: carboxymethylcellulose (CMC) 98 % of control | [20] 105 % of control | dose: 400.0 mg/kg/injection, schedule: Q01DX009 (ip), vehicle: carboxymethylcellulose (CMC) 94 % of control and 96 % of control | dose: 400.0 mg/kg/injection, schedule: Q04DX002 (ip), vehicle: saline 97 % of control and 105 % of control | dose: 400.0 mg/kg/injection, schedule: Q04DX003 (ip), vehicle: carboxymethylcellulose (CMC) 101 % of control

COc1cc(CNC(=O)NCCCl)cc(OC)c1OC
inactive: dose: 100.0 mg/kg/injection, schedule: Q01DX001 (ip), vehicle: Klucel (hydroxypropylcellulose) (HPC) 96 % of control | [21] 94 % of control | dose: 200.0 mg/kg/injection, schedule: Q01DX001 (ip), vehicle: Klucel (hydroxypropylcellulose) (HPC) 88 % of control | [22] 95 % of control | dose: 400.0 mg/kg/injection, schedule: Q01DX001 (ip), vehicle: Klucel (hydroxypropylcellulose) (HPC) 98 % of control | [23] 90 % of control

CCC(=O)Nc1cc(Cl)ccc1C
inactive: [21] 98 % of control | [12] 102 % of control | [22] 98 % of control | [13] 102 % of control | [23] 95 % of control | [24] 102 % of control

CCCCCCCCCCCCNc1c(OCC)c(=O)c1=O
inactive: [12] 88 % of control | [13] 91 % of control | [24] 93 % of control

NC(=O)NC(CC(=O)O)C(=O)O (centres undefined)
inactive: [25] 117 % of control | [26] 101 % of control | [27] 92 % of control

CC(C)(O)C1(O)CCCC1
inactive: [1] 95 % of control | [2] 93 % of control | [3] 101 % of control | [4] 93 % of control

C1=Cc2cccc3c2N(C1)CCC3 (tested in a mixture with another compound)
inactive: [28] 103 % of control | [25] 109 % of control | [29] 107 % of control | [26] 93 % of control | [30] 95 % of control | [27] 98 % of control

CC(CC(=O)c1ccc2ccccc2c1)C(=O)O (centres undefined)
inactive: dose: 75.0 mg/kg/injection, schedule: Q04DX003 (ip), vehicle: Klucel (hydroxypropylcellulose) (HPC) 97 % of control | dose: 150.0 mg/kg/injection, schedule: Q04DX003 (ip), vehicle: Klucel (hydroxypropylcellulose) (HPC) 92 % of control | dose: 300.0 mg/kg/injection, schedule: Q04DX003 (ip), vehicle: Klucel (hydroxypropylcellulose) (HPC) 107 % of control

CC(=O)Nc1ccc(Cl)c(F)c1Cl
inactive: [9] 104 % of control | [10] 93 % of control | [11] 107 % of control

CC(NC(=O)C(C)(C)C)c1ccc2c(c1)OCCO2 (centres undefined)
inactive: [14] 106 % of control | [15] 95 % of control | dose: 400.0 mg/kg/injection, schedule: Q04DX002 (ip), vehicle: saline with Tween-80 95 % of control

O=C(COc1ccc(Cl)cc1)c1ccccc1
inactive: [28] 99 % of control | [29] 87 % of control | [30] 100 % of control

O=C(O)c1c(-c2ccccc2)oc(-c2ccccc2)c1C(=O)O
inactive: [17] 105 % of control | [19] 94 % of control

COc1ccc2c3c1OC1C(C)=CCC4C(C2)N(C)CCC314 (centres undefined)
inactive: dose: 75.0 mg/kg/injection, schedule: Q01DX001 (ip), vehicle: saline 101 % of control

Clc1ccc2c(Cl)ncnc2c1
inactive: dose: 13.0 mg/kg/injection, schedule: Q01DX Z (ip), vehicle: methylcellulose (MC) 100 % of control | dose: 20.0 mg/kg/injection, schedule: Q01DX Z (ip), vehicle: methylcellulose (MC) 100 % of control | dose: 30.0 mg/kg/injection, schedule: Q01DX Z (ip), vehicle: methylcellulose (MC) 104 % of control | dose: 45.0 mg/kg/injection, schedule: Q01DX Z (ip), vehicle: methylcellulose (MC) 105 % of control | [7] 96 % of control | [8] 97 % of control | [2] 99 % of control | dose: 100.0 mg/kg/injection, schedule: Q01DX009 (ip), vehicle: saline 100 % of control | [5] 97 % of control | [3] 91 % of control | [6] 94 % of control

COC1COC(OC)C(OS(C)(=O)=O)C1OC (centres undefined)
inactive: [16] 106 % of control | [18] 98 % of control | [20] 101 % of control
